According to the supplement of paper PMC10307832:

Key:
Assay in all cases: relative viability (nuclei count vs DMSO), 5 days (fraction); higher = more cells survive
[1] = compound: CC(C)C[C@H](NC(=O)[C@H](Cc1ccccc1)NC(=O)c1cnccn1)B(O)O [Bortezomib] + CS(=O)(=O)N1CCN(Cc2cc3nc(-c4cccc5[nH]ncc45)nc(N4CCOCC4)c3s2)CC1 [Pictilisib] (partner 1 µM)
In short: (§1)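 Lung cancer cell lines in 1536-well plates were dosed by pin tool the day after seeding, either with one drug alone or with a fixed anchor-drug dose plus five library-drug doses (not always all listed) in √10 steps. After 5 days, cells were fixed and their nuclei stained in one step (final 0.05% Triton X-100, 1% formaldehyde, 1 ug/ml Hoechst), then counted on 4× images. Relative viability is the nuclei count in treated wells divided by that in vehicle wells. Values are medians of duplicate plates.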

[2] = compound: CC1=CC(=NN1)NC2=CC(=NC(=N2)/C=C/C3=CC=CC=C3)N4CCN(CC4)C + CCNC(=O)c1noc(-c2cc(C(C)C)c(O)cc2O)c1-c1ccc(CN2CCOCC2)cc1 [Luminespib] (partner 0.01 µM)
In short: as §1

[3] = compound: COC1=CC(c2cc3ccccc3[nH]2)=N/C1=C\c1[nH]c(C)cc1C [Obatoclax] + CCNC(=O)c1noc(-c2cc(C(C)C)c(O)cc2O)c1-c1ccc(CN2CCOCC2)cc1 [Luminespib] (partner 0.01 µM)
In short: as §1

[4] = compound: CC(C)C[C@H](NC(=O)[C@H](Cc1ccccc1)NC(=O)c1cnccn1)B(O)O [Bortezomib] + Nc1nc2[nH]cc(CCc3ccc(C(=O)N[C@@H](CCC(=O)O)C(=O)O)cc3)c2c(=O)[nH]1 [Pemetrexed] (partner 0.2 µM)
In short: as §1

Cell Line	relative viability ([1]; first compound 0.0002 µM)	relative viability ([1]; first compound 0.000632 µM)	relative viability ([1]; first compound 0.002 µM)	relative viability ([1]; first compound 0.006325 µM)	relative viability ([1]; first compound 0.02 µM)	relative viability ([2]; first compound 0.08 µM)	relative viability ([2]; first compound 0.253 µM)	relative viability ([2]; first compound 0.8 µM)	relative viability ([2]; first compound 2.53 µM)	relative viability ([2]; first compound 8 µM)	relative viability ([3]; first compound 0.01 µM)	relative viability ([3]; first compound 0.03162 µM)	relative viability ([3]; first compound 0.1 µM)	relative viability ([3]; first compound 0.3162 µM)	relative viability ([3]; first compound 1 µM)	relative viability ([4]; first compound 0.0002 µM)	relative viability ([4]; first compound 0.000632 µM)	relative viability ([4]; first compound 0.002 µM)	relative viability ([4]; first compound 0.006325 µM)	relative viability ([4]; first compound 0.02 µM)
EBC-1	0.415	0.408	0.177	0.0912	0.0987	–	–	–	–	–	–	–	–	–	–	–	–	–	–	–
EKVX	0.429	0.426	0.463	0.33	0.0746	0.852	0.981	0.984	0.758	0.261	0.899	0.954	0.979	0.67	0.728	0.373	0.417	0.482	0.216	0.102
EMC-BAC-2	0.523	0.504	0.544	0.476	0.158	1.2	1.21	1.15	0.733	0.271	1.2	1.19	1.16	1.08	1.02	0.415	0.44	0.443	0.326	0.266
EPLC-272H	–	–	0.3	0.242	0.15	0.456	0.458	0.149	0.11	0.0775	0.377	0.235	0.393	0.189	0.168	0.354	0.308	0.157	0.085	0.0797
H3255	0.58	0.482	0.406	0.192	0.142	1.03	0.991	0.892	0.771	0.559	0.903	0.823	0.899	0.88	0.806	0.6	0.603	0.479	0.378	0.344
HARA	0.479	0.529	0.481	0.0462	0.0659	0.699	0.791	0.348	0.139	0.043	0.889	0.827	0.728	0.692	1.05	0.221	0.178	0.228	0.157	0.13
HCC-15	0.649	0.745	0.733	0.396	0.111	0.497	0.349	0.444	0.237	0.108	0.302	0.148	0.267	0.361	0.274	0.213	0.199	0.215	0.13	0.1
HCC-44	0.581	0.575	0.554	0.464	0.133	1.04	1.53	0.993	0.842	0.164	1.07	0.992	0.658	0.65	0.167	0.674	0.723	0.615	0.631	0.256
HCC-78	0.183	0.23	0.207	0.21	0.193	–	–	–	–	–	–	–	–	–	–	0.786	0.89	0.932	0.887	0.902
